Measured values as given in patent publication US11203773B2, “Designer ribosomes and methods of use thereof for incorporating non-standard amino acids into polypeptides” (Yale University, priority 2016, dated 2021).
Where two headings read alike, the source gives them in different places.

Key:
E. coli GluRS [1] = molecular target: T1, E. coli GluRS (Escherichia coli, UniProt P04805); assay: Deacylation assay of [32P]-aminoacyl-tRNA; format: biochemical; design: made in house; host or cells: E. coli BL21(DE3); conditions: for krev (apparent rate of deacylation): deacylation of aminoacyl-tRNA, GluRS 5.0 μM, 25° C.
T1 sequence (P04805 whole entry): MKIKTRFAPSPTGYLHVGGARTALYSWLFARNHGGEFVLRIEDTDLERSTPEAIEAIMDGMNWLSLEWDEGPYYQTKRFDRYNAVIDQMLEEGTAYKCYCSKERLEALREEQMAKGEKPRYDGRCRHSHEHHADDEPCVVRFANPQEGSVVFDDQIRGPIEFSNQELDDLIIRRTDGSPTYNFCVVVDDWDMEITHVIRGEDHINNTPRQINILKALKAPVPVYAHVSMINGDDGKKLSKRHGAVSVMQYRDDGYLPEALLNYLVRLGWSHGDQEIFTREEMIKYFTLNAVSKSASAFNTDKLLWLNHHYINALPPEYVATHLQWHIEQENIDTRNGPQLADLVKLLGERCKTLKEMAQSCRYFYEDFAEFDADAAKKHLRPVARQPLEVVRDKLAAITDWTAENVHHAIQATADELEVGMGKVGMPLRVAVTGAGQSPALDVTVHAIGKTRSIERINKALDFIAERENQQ
Protocol: (§3) Deacylation assays. Large scale (200 μL) aminoacylation reactions were initiated using the conditions described above (iv). The reactions were allowed to proceed for 1 h at 37° C., after which each reaction mixture was phenol/chloroform extracted. In each case, the aminoacylated tRNA product was ethanol precipitated, and the buffer was exchanged using a micro Bio-Spin 6 column (BioRad) following the procedure specified by the manufacturer and 100 mM HEPES (pH 8.0) containing 100 mM KCl. The precise extent of aminoacylation was calculated using the procedure described above; the 2 μM concentration corresponds to total aminoacylated tRNA. Assays were performed at 25° C. in a 50 μL reaction with 2 μM [^32P]-aminoacyl-tRNA in 100 mM HEPES (pH 7.0) containing 100 mM KCl and 15 mM MgCl2.

E. coli GluRS [2] = molecular target: T1, E. coli GluRS; assay: Aminoacylation of 32P-tRNA with α- and β3-amino acids; format: biochemical; design: made in house; host or cells: E. coli BL21(DE3)
E. coli GluRS [3] = molecular target: T1, E. coli GluRS; assay: Adenylation of α- and β3-amino acids, pyrophosphate exchange assay; conditions: for kcat (min^−1) or RSA (^32P-ATP formed min^−1 enzyme μM^−1): 25° C., pH 7.0
Protocol: (§4) Adenylation of α- and β-Amino Acids Catalyzed by E. coli PheRS, GlyRS, MetRS, and GluRS. […] Briefly, assay mixtures (50 μL) assembled at 25° C. contained the requisite α- or β^3-amino acid substrate (between 5 μM and 5 mM) in 100 mM HEPES (pH 7.0) containing 100 mM KCl, 15 mM MgCl2, 2 mM ATP, 0.5 mM NaPPi, and 50 μCi [^32P]-NaPPi). Reactions were initiated upon addition of enzyme (10 nM MetRS, 10 nM PheRS, or 50 nM GlyRS; 100 nM GluRS for reactions with α-Glu or 1.13 μM GluRS for reactions with β^3-Glu), incubated for various times (10 sec to 10 min), and halted by adding a 5 μL reaction aliquot to 100 μL quenching solution (10% charcoal, 0.5% HCl). 50 μL of 200 mM NaPPi in 1.5 N HCl was then added to each quenched reaction to decrease nonspecific binding of pyrophosphate to the charcoal. Each quenched reaction was then filtered through Whatman filter paper (number 3), previously washed with washing solution (200 mM NaPPi in 1 N HCl) using a 96-well BIO-DOT® apparatus (BioRad). Each well of the apparatus was then washed four times with 200 μL aliquots of washing solution (by pipetting washing solution up and down at least 10 times per wash) to minimize nonspecific binding of pyrophosphate to charcoal. Each experimental well was paired with an analogous control well (no-enzyme control) that lacked enzyme; a single membrane contained time points for both α- and β^3-amino acid substrates and all no-enzyme controls. The membrane was allowed to dry and was protected with a sheet of Microseal B adhesive seals (Biorad) prior to exposure to a BAS Storage Phosphor screen. Screens were imaged on a Typhoon 9500FLA biomolecule imager and the signal intensity of each dot was quantified using ImageJ to determine the relative amount of [^32P]-ATP formed as a function of time (Ctime). Each raw value were corrected by subtracting the intensity of the dot corresponding to the appropriate no-enzyme control (Cblank) and the resulting corrected values of Ccorr (representing the relative amounts of ^32P-ATP formed) were plotted as a function of time to determine values of relative ^32P-ATP formed per minute. Those values were divided by the concentration of enzyme used, and the data was plotted as relative specific activity (^32P-ATP formed min^−1×μM^−1 enzyme) and fitted using Prism by performing nonlinear regression using the least squares method and Equation 1 to obtain RSA (relative specific activity) and KM values (Equation 1 and Table 2).
(§5) In Equation 1, v is the apparent relative specific activity (relative ^32P-ATP formed per minute) obtained at each substrate concentration divided by the enzyme concentration, RSA is the relative specific activity, S is the concentration of substrate, and KM is the Michaelis-Menten constant.

E. coli TyrRS [4] = molecular target: T2, E. coli TyrRS (Escherichia coli, UniProt P0AGJ9); assay: Aminoacylation of 32P-tRNA with α- and β3-amino acids; format: biochemical
T2 construct: made in house; host or cells: E. coli BL21(DE3)
T2 sequence (P0AGJ9 1-424): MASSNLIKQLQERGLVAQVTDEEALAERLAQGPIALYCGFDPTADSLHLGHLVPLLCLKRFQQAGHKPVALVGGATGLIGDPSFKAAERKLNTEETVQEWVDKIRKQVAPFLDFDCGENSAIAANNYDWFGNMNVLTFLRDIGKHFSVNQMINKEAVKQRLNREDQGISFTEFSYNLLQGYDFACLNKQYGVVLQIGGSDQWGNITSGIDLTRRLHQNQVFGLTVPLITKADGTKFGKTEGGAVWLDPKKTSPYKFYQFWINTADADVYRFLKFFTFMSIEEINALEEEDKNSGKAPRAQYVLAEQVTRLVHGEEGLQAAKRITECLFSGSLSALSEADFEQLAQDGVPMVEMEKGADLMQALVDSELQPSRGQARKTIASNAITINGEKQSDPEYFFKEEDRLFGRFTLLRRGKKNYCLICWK

E. coli TyrRS [5] = molecular target: T2, E. coli TyrRS; assay: Adenylation of α- and β-Tyr, coupled MESG/PNP pyrophosphate release assay; format: biochemical
Text: ii. Adenylation of α- and β-Tyr catalyzed by E. coli TyrRS. These reactions were monitored spectrophotometrically in a coupled assay using inorganic pyrophosphatase, 2-amino-6-mercapto-7-methylpurine ribonucleoside (MESG), and purine nucleoside phosphorylase (PNP) to monitor the rate of pyrophosphate release, according to the manufacturer's instructions (Enzcheck Pyrophosphate assay kit, Thermo Fisher Scientific). The assay measures the increase in absorbance at 360 nm due to MESG phosphorolysis, and two molecules of MESG are consumed per pyrophosphate generated. This direct assay could be employed for TyrRS because the rate of ATP hydrolysis (in the absence of amino acid substrate) was insignificant, which was not the case for the other synthetases which therefore required the more laborious pyrophosphate exchange assay described above. […] For TyrRS, kcat is the turnover number (units of reciprocal time) since the change in absorbance can be directly correlated to concentration of pyrophosphate formed.

E. coli TyrRS [6] = molecular target: T2, E. coli TyrRS; assay: Deacylation assay of [32P]-aminoacyl-tRNA; format: biochemical; conditions: for krev (apparent rate of deacylation): deacylation of aminoacyl-tRNA, TyrRS 1 μM, 25° C.
Protocol: as §3

E. coli MetRS [7] = molecular target: T3, E. coli MetRS (Escherichia coli, UniProt P00959); conditions: for kcat (min^−1) or RSA (^32P-ATP formed min^−1 enzyme μM^−1): 25° C., pH 7.0
T3 sequence (P00959 whole entry): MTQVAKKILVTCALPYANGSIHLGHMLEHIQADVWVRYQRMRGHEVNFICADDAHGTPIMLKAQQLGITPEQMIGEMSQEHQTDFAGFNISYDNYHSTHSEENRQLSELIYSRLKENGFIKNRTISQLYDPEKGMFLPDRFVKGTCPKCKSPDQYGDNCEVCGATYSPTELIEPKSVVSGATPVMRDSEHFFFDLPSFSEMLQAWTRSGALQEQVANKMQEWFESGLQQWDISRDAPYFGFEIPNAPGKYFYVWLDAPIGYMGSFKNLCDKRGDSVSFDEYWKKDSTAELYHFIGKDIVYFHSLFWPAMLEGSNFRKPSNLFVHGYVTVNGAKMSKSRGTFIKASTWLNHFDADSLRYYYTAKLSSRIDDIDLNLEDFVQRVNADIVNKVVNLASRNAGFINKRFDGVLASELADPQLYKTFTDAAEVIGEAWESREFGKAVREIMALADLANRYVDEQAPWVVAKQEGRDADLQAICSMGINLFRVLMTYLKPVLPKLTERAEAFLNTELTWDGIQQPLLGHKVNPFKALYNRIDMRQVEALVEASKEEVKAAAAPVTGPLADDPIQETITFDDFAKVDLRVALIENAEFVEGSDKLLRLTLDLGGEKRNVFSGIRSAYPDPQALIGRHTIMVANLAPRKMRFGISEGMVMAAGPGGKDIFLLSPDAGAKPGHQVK
Protocol: as §4, §5

E. coli MetRS [8] = molecular target: T3, E. coli MetRS
Protocol: Aminoacylation of α- and β^3-amino acids. All tRNAs were prepared for aminoacylation by heating ^32P-tRNA (in 100 mM HEPES (pH 7.0)) to 95° C. for 3 min, and adding sufficient aminoacylation buffer (100 mM HEPES (pH 7.0), 100 mM KCl, 15 mM MgCl2) to ensure [^32P-tRNA]=4 μM. This tRNA mixture was allowed to cool at RT for 30 min. […] Equal volumes of the tRNA and amino acid mix were combined, and enzyme was added to initiate the reaction. The final concentration of tRNA after mixing was 2 μM. Reactions were quenched at various time points by mixing 1 μL of the reaction mixture with 4 μL of P1 (Sigma) or S1 (Invitrogen) nuclease solution (0.5 U/μL final prepared from a 10 U/μL stock solution in 10 mM NaOAc (pH 5.0). PEI cellulose TLC plates were run as previously described (Ledoux, et al., Methods, 44:74 (2008)), exposed to a BAS Storage Phosphor Screen, and imaged using a Typhoon FLA9500 biomolecule imager. The intensity of each band was quantified using ImageJ. The sum of the intensities of the bands corresponding to [^32P]-AMP (IAMP) and aminoacyl-[^32P]-AMP (IAA) was set equal to 2 μM, and the concentration of aminoacylated-tRNA at each time point and each enzyme concentration (μM product formed, x) calculated from the equation x=[(IAA×2 μM)/(IAA+IAMP)]. The increase in aminoacyl-^32P-AMP over time was divided by the amount of enzyme used, plotted as a function of substrate concentration and fitted to a hyperbolic equation to obtain kcat and KM values, using Equation 1 and Prism as described for the adenylation reactions. For all aminoacylation reactions, kcat has units of reciprocal time (min^−1).

E. coli MetRS [9] = molecular target: T3, E. coli MetRS; conditions: for krev (apparent rate of deacylation): deacylation of aminoacyl-tRNA, MetRS 500 nM, 25° C.
Protocol: as §3

[10] = tested on: BL21(DE3) cells expressing only WT ribosomes; assay: Expression of DHFR in 19/20 minimal media supplemented with amino acid (SDS-PAGE); format: cell-based, E. coli
Text: (§1) To evaluate the extent of in vivo β^3-amino acid incorporation, BL21 (DE3) cells were co-transformed via electroporation (vide infra) with two plasmids. […] The other plasmid encoded either the WT rrnb sequence (pLK35-rrnb), the 040329 mutant reported by Hecht (pLK35-040329.rrnb), or the P7A7 mutant (pLK35-P7A7.rrnb) identified during the puromycin sensitivity screen described above.
(§2) ii. β^3-amino acid incorporation. The subsequent protocol for in vivo β^3-amino acid incorporation employed minimal media and was adapted from procedures reported by Tirrell and Cropp (Liu, et al., Bioorg Med Chem Lett, 20:5613 (2010); Mandavi, et al., J Am Chem Soc, 135:2979 (2013)). Briefly, all 5 mL of the co-transformed cells prepared as described above were diluted into 100 mL of LB containing 50 ng/mL of kanamycin and […] of carbenicillin and grown to OD600=1.0, spun down, and then resuspended in 1/10th the original volume of 19/20 minimal media (10.5 g/L M9 salts, 0.1 mM CaCl2, 1 mM MgSO4, 1% glycerol, 100 μM of each amino acid (minus α-Phe), 25 mg/L thiamine, […] carbenicillin, 30 ng/mL kanamycin, 1 mM IPTG) supplemented with 1 mM of α-Phe or a β^3-Phe analog. Cells were grown overnight (18 h) at 37° C. while shaking (200 rpm). The cells were harvested by centrifugation (10 min at 4000×g) and resuspended in lysis buffer (50 mM NaH2PO4, 300 mM NaCl, 10 mM imidazole (pH 8.0)). Lysis was performed by sonication (Branson Sonifier 250) with 5 cycles of 20 s on, 20 s off. Lysed cells were then centrifuged for 20 min at 15000×g. The clarified cell lysate was incubated with Ni-NTA resin (Qiagen) for 1 h while gently rotating at 4° C. The Ni-NTA column was washed with lysis buffer prior to eluting proteins with elution buffer (50 mM NaH2PO4, 300 mM NaCl, 300 mM imidazole (pH 8.0)). Elutions were analyzed with SDS-PAGE to prepare material for in-gel trypsin digestions. Controls included side-by-side growths in (1) unsupplemented 19/20 minimal media, which contains only low levels of α-Phe present (negative control); (2). 19/20 minimal media supplemented with 1 mM α-Phe (positive control) and (3) and 19/20 minimal media supplemented with 1 mM β^3-Gly (negative control; β^3-aa that is not a β^3-Phe analog).

[11] = tested on: BL21(DE3) cells expressing 040329 ribosomes along with WT ribosomes; assay: as above; format: cell-based, E. coli; conditions: 040329 + WT ribosomes, media supplemented with 1 mM of the amino acid
Text: as §1, §2

[12] = tested on: BL21(DE3) cells expressing P7A7 ribosomes along with WT ribosomes; assay: as above; format: cell-based, E. coli; conditions: media supplemented with 1 mM of the amino acid
Text: as §1, §2

E. coli PheRS [13] = molecular target: T4, E. coli PheRS (Escherichia coli, UniProt P08312); assay: Adenylation of α- and β3-amino acids, pyrophosphate exchange assay; conditions: for kcat (min^−1) or RSA (^32P-ATP formed min^−1 enzyme μM^−1): 25° C., pH 7.0
T4 sequence (P08312 whole entry): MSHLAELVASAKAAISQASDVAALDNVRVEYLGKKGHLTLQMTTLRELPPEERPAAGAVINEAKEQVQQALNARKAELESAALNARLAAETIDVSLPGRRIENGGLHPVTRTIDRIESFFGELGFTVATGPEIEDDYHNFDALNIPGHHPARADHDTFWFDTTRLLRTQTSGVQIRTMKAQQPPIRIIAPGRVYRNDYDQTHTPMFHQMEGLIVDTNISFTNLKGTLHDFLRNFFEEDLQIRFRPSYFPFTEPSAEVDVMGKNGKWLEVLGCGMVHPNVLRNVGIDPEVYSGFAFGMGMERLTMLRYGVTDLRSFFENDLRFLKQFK
T4 sequence (P07395 whole entry partner): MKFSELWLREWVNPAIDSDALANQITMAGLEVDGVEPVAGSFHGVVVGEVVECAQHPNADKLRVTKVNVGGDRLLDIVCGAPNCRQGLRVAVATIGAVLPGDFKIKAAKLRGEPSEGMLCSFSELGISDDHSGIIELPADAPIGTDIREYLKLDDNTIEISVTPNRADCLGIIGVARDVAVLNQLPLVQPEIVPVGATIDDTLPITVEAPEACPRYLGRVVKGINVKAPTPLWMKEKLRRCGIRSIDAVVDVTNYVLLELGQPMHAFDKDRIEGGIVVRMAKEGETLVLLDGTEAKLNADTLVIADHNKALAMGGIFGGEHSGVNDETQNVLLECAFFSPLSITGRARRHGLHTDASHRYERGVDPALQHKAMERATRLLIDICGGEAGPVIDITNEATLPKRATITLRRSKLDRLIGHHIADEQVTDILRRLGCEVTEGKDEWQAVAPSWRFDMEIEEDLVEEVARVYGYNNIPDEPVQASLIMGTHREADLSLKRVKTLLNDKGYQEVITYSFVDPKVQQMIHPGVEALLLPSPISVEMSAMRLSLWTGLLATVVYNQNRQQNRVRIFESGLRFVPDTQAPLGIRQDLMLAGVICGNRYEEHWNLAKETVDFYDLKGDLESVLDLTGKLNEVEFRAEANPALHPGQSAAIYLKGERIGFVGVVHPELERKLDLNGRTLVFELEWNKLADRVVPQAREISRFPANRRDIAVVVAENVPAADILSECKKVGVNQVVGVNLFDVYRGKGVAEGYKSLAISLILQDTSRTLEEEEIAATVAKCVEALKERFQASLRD
Protocol: as §4, §5

E. coli PheRS [14] = molecular target: T4, E. coli PheRS; assay: Deacylation assay of [32P]-aminoacyl-tRNA; format: biochemical; design: made in house; host or cells: E. coli BL21(DE3); conditions: for krev (apparent rate of deacylation): deacylation of aminoacyl-tRNA, PheRS 500 nM, 25° C.
Protocol: as §3

E. coli PheRS [15] = molecular target: T4, E. coli PheRS; assay: Aminoacylation of 32P-tRNA with α- and β3-amino acids; format: biochemical; design: made in house; host or cells: E. coli BL21(DE3); conditions: for kcat: 2 μM tRNA
[16] = tested on: DHFR position 128 translated in E. coli BL21 (DE3); assay: Spectral counting (LC-MS/MS of tryptic peptides) of β3-(p-Br)Phe and α-Phe incorporation into DHFR in vivo; format: cell-based; conditions: spectral counting
Text: as §1
as §2, with “19/20 minimal media supplemented with 1 mM α-Phe (positive control) and (3) and 19/20 minimal media supplemented with 1 mM β^3-Gly (negative control; β^3-aa that is not a β^3-Phe analog).” left out

## NC(CCC(=O)O)CC(=O)O (stereo not drawn) [β-Glu, β^3-glutamic acid]
E. coli GluRS [1]
  krev (apparent rate of deacylation): 0.43 ± 0.15 min⁻¹
E. coli GluRS [2]
  Km: 375 ± 271 µM
E. coli GluRS [2]; 2 μM tRNA
  kcat: 1.25e-05 ± 1.5e-06 s⁻¹
E. coli GluRS [3]
  Km: 215 ± 110 µM
  kcat (min^−1) or RSA (^32P-ATP formed min^−1 enzyme μM^−1): 42.7 ± 5.8 ^32P-ATP formed min^−1 enzyme μM^−1

## N[C@@H](Cc1ccc(O)cc1)C(=O)O [α-Tyr, Tyrosine]
E. coli TyrRS [4]
  Ratio (α/β) of kcat: 56.3 ± 6.8
  Ratio (α/β) of kcat/KM: 1541.7 ± 724.3
E. coli TyrRS [5]
  Ratio (α-/β-) of KM: 0.047 ± 0.03
  Ratio (α-/β-) of kcat: 46.2 ± 7.7
  Ratio (α-/β-) of kcat/KM: 972.6 ± 632.0
E. coli TyrRS [6]
  krev (apparent rate of deacylation): 1.9 ± 1.3 min⁻¹
E. coli TyrRS [6]; deacylation, TyrRS
  Ratio (α/β) of krev: 1.01 ± 0.75

## CSCC[C@H](N)C(=O)O [α-Met, Methionine]
E. coli MetRS [7]; adenylation
  Ratio (α-/β-) of KM: 0.70 ± 0.5
  Ratio (α-/β-) of RSA: 1.4 ± 0.2
  Ratio (α-/β-) of kcat/KM: 1.98 ± 1.5
  kcat (min^−1) or RSA (^32P-ATP formed min^−1 enzyme μM^−1): 430 ± 38 ^32P-ATP formed min^−1 enzyme μM^−1
E. coli MetRS [7]; adenylation phase
  preference for α-Met over β^3-Met: 2 fold
E. coli MetRS [8]; aminoacylation
  Ratio (α/β) of KM: 0.40 ± 0.18
  Ratio (α/β) of kcat: 6.8 ± 1.3
  Ratio (α/β) of kcat/KM: 17.0 ± 8.5
E. coli MetRS [8]; complete aminoacylation reaction
  preference (kcat/KM) for α-Met over β^3-Met: 19 fold
E. coli MetRS [9]
  krev (apparent rate of deacylation): 2.1 ± 1.7 min⁻¹
E. coli MetRS [9]; deacylation, MetRS
  Ratio (α/β) of krev: 0.52 ± 0.49

## N[C@@H](CCC(=O)O)C(=O)O [α-Glu, Glutamic Acid]
E. coli GluRS [1]
  krev (apparent rate of deacylation): 0.32 ± 0.14 min⁻¹
E. coli GluRS [1]; deacylation, GluRS
  Ratio (α/β) of krev: 0.73 ± 0.42
E. coli GluRS [2]
  Ratio (α/β) of KM: 0.94 ± 0.60
  Ratio (α/β) of kcat: 61.2 ± 9.1
  Ratio (α/β) of kcat/KM: 82.78 ± 68.2
E. coli GluRS [3]
  Ratio (α-/β-) of KM: 0.35 ± 0.27
  Ratio (α-/β-) of RSA: 31.6 ± 6.4
  Ratio (α-/β-) of kcat/KM: 89.0 ± 70^
  kcat (min^−1) or RSA (^32P-ATP formed min^−1 enzyme μM^−1): 1349 ± 206 ^32P-ATP formed min^−1 enzyme μM^−1

## NC(CC(=O)O)Cc1ccc(O)cc1 (stereo not drawn) [β-Tyr, β^3-tyrosine]
E. coli TyrRS [4]
  Km: 340 ± 80.3 µM
E. coli TyrRS [4]; 2 μM tRNA
  kcat: 0.0208 ± 0.012 s⁻¹
E. coli TyrRS [5]
  Km: 450 µM
E. coli TyrRS [5]; kcat (turnover number)
  kcat (min^−1) or RSA (^32P-ATP formed min^−1 enzyme μM^−1): 0.027 ± 0.001 min⁻¹
E. coli TyrRS [6]
  krev (apparent rate of deacylation): 1.9 ± 0.6 min⁻¹

## N[C@@H](Cc1ccccc1)C(=O)O [α-Phe, Phenylalanine]
[10]; α-Phe added
  level of DHFR, higher than trace amounts: approximately 8 fold
[11]
  level of DHFR: significant levels
[12]
  level of DHFR: lower levels
E. coli PheRS [13]
  Ratio (α-/β-) of KM: 0.18 ± 0.11
  Ratio (α-/β-) of RSA: 1.4 ± 0.3
  Ratio (α-/β-) of kcat/KM: 8.06 ± 5.63
  kcat (min^−1) or RSA (^32P-ATP formed min^−1 enzyme μM^−1): 59.1 ± 7.1 ^32P-ATP formed min^−1 enzyme μM^−1
E. coli PheRS [14]
  krev (apparent rate of deacylation): 0.15 ± 0.008 min⁻¹
E. coli PheRS [14]; deacylation, PheRS
  Ratio (α/β) of krev: 0.49 ± 0.05
E. coli PheRS [15]
  Ratio (α/β) of KM: 1.7 ± 0.9
  Ratio (α/β) of kcat: 3.7 ± 0.7
  Ratio (α/β) of kcat/KM: 2.2 ± 1.3
  kcat: 0.0143 ± 0.00183 s⁻¹

## NC(CC(=O)O)Cc1ccc(Br)cc1 (stereo not drawn) [β^3-(p-Br)Phe]
[10]; 19/20 minimal media supplemented with 1 mM of the amino acid
  amount of DHFR generated: trace amounts
[11]
  level of DHFR: significant levels
[12]
  level of DHFR: highest levels
[16]; cells expressing 040329 ribosomes
  lower incorporation of β^3-(p-Br)Phe relative to α-Phe: 30 fold
[16]; cells expressing P7A7 ribosomes
  lower incorporation of β^3-(p-Br)Phe relative to α-Phe: 10 fold

## CSCCC(N)CC(=O)O (stereo not drawn) [β-Met, β^3-methionine]
E. coli MetRS [7]; adenylation
  Km: 33.4 ± 22 µM
  kcat (min^−1) or RSA (^32P-ATP formed min^−1 enzyme μM^−1): 310 ± 47 ^32P-ATP formed min^−1 enzyme μM^−1
E. coli MetRS [8]; aminoacylation
  Km: 609 ± 243 µM
E. coli MetRS [8]; aminoacylation, 2 μM tRNA
  kcat: 0.0035 ± 0.0005 s⁻¹
E. coli MetRS [9]
  krev (apparent rate of deacylation): 4.0 ± 1.8 min⁻¹

## NC(CC(=O)O)Cc1ccccc1 (stereo not drawn) [β-Phe, β^3-phenylalanine]
E. coli PheRS [13]
  Km: 300 ± 137 µM
  kcat (min^−1) or RSA (^32P-ATP formed min^−1 enzyme μM^−1): 41.6 ± 6.8 ^32P-ATP formed min^−1 enzyme μM^−1
E. coli PheRS [14]
  krev (apparent rate of deacylation): 0.32 ± 0.03 min⁻¹
E. coli PheRS [15]
  Km: 119 ± 51.5 µM
  kcat: 0.004 ± 0.0005 s⁻¹
